# Measured values as given in patent publication US5508180A, “Biocatalytic oxidation using soybean peroxidase” (Enzymol International, Inc., priority 1994, dated 1996).
# Molecular target: T1, soybean peroxidase (Glycine max, UniProt O22443)
# T1 construct: secreted heme glycoprotein, reported 37 kDa
# Test: Demethylation (oxidation) of methoxybenzenes by soybean peroxidase, absorbance of quinone products
# Assay type: biochemical
# Conditions: for dA per minute (289 nm) / dA per minute (286 nm) / dA per minute (250 nm) / dA per minute (310 nm): pH 2
# Experimental: 0.1 ml soybean peroxidase (120 purpurogallin units/ml) stock solution was added to 3 ml veratryl alcohol solution (1 g veratryl alcohol in 750 ml water) and vortexed in a test tube. 20 μl peroxide stock solution was added, mixed and the solution poured into a 1 cm path, 4 ml quartz cuvette. Using a Shimadzu UV-160 double beam recording spectophotometer, the change in absorbance of the sample compared to a reference cuvette containing 3 ml veratryl alcohol solution only was monitored every minute by scanning wavelengths from 500 to 200 nm. The peak wavelength of 308 nm was identified as veratryl aldehyde and was used for further monitoring. The kinetics of the reaction were determined from the linear portion of the increase in absorbance.
# Using assay methods described in Example 15, three methoxybenzenes were tested for oxidation by soybean peroxidase (SBP). These compounds were: 1,4-Dimethoxybenzene (DMB), 1,2,3-Trimethoxybenzene (TMB) and 1,3,5-Trimethoxybenzene (TMB). Stock solutions were prepared by heating 1 g (0.5g 1,3,5-TMB) in 750 ml water to 60 deg C on a stirring hot plate, allowing the solution to cool to room temperature and adjusting the pH to 2 with HCl. Assays were performed as described in Example 1. Initially, a scan of wavelengths from 500 to 200 nm every minute was done during each substrate oxidation to find suitable wavelengths to monitor for the corresponding quinone products.
# For example, a comparison of the rates of oxidation of 1,4-dimethoxybenzene at pH 2 where the pH was adjusted with HCl in one case and with HNO3 in a second case is shown in Table 11.
# T1 sequence (O22443 27-332): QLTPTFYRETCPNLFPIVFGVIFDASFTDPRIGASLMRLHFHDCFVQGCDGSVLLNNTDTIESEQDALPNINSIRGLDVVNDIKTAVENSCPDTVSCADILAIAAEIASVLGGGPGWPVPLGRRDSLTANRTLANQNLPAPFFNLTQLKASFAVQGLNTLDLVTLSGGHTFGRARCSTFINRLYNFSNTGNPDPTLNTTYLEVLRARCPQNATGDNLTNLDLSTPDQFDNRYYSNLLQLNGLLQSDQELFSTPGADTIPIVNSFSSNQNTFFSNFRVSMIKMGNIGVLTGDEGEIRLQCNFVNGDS
smiles,measurement,setting,value
"COc1cccc(OC)c1OC [1,2,3-TMB, 1,2,3-Trimethoxybenzene]",dA per minute (289 nm),25 °C,0.0147
same,dA per minute (289 nm),35 °C,0.0272
same,dA per minute (289 nm),45 °C,0.0893
same,dA per minute (289 nm),55 °C,1.1161
same,dA per minute (289 nm),65 °C,0.0301
same,dA per minute (289 nm),75 °C,0.0142
"COc1cc(OC)cc(OC)c1 [1,3,5-TMB, 1,3,5-Trimethoxybenzene]",dA per minute (286 nm),35 °C,0.0282
same,dA per minute (286 nm),45 °C,0.474
same,dA per minute (286 nm),55 °C,0.097
same,dA per minute (286 nm),65 °C,0.1724
same,dA per minute (286 nm),75 °C,0.0262
"COc1ccc(OC)cc1 [1,4-DMB, 1,4-Dimethoxybenzene]",dA per minute (250 nm),25 °C,1.0134
same,dA per minute (310 nm),25 °C,0.3566
same,dA per minute (250 nm),35 °C,1.1306
same,dA per minute (310 nm),35 °C,0.3942
same,dA per minute (250 nm),45 °C,1.817
same,dA per minute (310 nm),45 °C,0.745
same,dA per minute (250 nm),55 °C,2.73
same,dA per minute (310 nm),55 °C,1.088
same,dA per minute (250 nm),65 °C,2.99
same,dA per minute (310 nm),65 °C,0.437
same,dA per minute (250 nm),75 °C,0.883
same,dA per minute (310 nm),75 °C,0.129
same,dA per minute (250 nm),85 °C,0.0619
same,dA per minute (310 nm),85 °C,0.0237
same,dA per minute (250 nm),95 °C,0.0777
same,dA per minute (310 nm),95 °C,0.0296
same,dA 250 nm per min,pH 2 adjusted with HCl,1.275
same,dA 310 nm per min,pH 2 adjusted with HCl,0.3273
same,dA 250 nm per min,pH 2 adjusted with HNO3,0.7202
same,dA 310 nm per min,pH 2 adjusted with HNO3,0.2934
